Test results published in PubChem BioAssay AID1918934 (Molecular Pharmacology Branch, DTP, NCI, 2023).

Test system: 292921-168-R-J2-PDC complex spheroid viability
Test: Anticancer human tumor 292921-168-R-J2-PDC patient-derived pancreatic carcinoma cell line growth inhibition
Details: for IC50: curve of first compound; for viability, T/C: stronger effect = lower value
Method in brief: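 Multicellular complex spheroids of tumor cells with human endothelial cells (HUVEC) and mesenchymal stem cells; the LSD1 inhibitor iadademstat was combined with standard-of-care or investigational agents. Top concentration at or near clinical Cmax, half-log dilutions; final DMSO ≤0.25%.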

[1] = second compound 0.1 µM, first compound 0.0316 µM
[2] = second compound 0.1 µM, first compound 0.1 µM
[3] = second compound 0.1 µM, first compound 0.316 µM
[4] = second compound 0.1 µM, first compound 1 µM
[5] = second compound 0.1 µM, first compound 3.16 µM
[6] = second compound 0.1 µM, first compound 10 µM
[7] = second compound 0.316 µM, first compound 0.0316 µM
[8] = second compound 0.316 µM, first compound 0.1 µM
[9] = second compound 0.316 µM, first compound 0.316 µM
[10] = second compound 0.316 µM, first compound 1 µM
[11] = second compound 0.316 µM, first compound 3.16 µM
[12] = second compound 0.316 µM, first compound 10 µM
[13] = second compound 1 µM, first compound 0.0316 µM
[14] = second compound 1 µM, first compound 0.1 µM
[15] = second compound 1 µM, first compound 0.316 µM
[16] = second compound 1 µM, first compound 1 µM
[17] = second compound 1 µM, first compound 3.16 µM
[18] = second compound 1 µM, first compound 10 µM
[19] = second compound 3.16 µM, first compound 0.0316 µM
[20] = second compound 3.16 µM, first compound 0.1 µM
[21] = second compound 3.16 µM, first compound 0.316 µM
[22] = second compound 3.16 µM, first compound 1 µM
[23] = second compound 3.16 µM, first compound 3.16 µM
[24] = second compound 3.16 µM, first compound 10 µM
[25] = second compound 10 µM, first compound 0.0316 µM
[26] = second compound 10 µM, first compound 0.1 µM
[27] = second compound 10 µM, first compound 0.316 µM
[28] = second compound 10 µM, first compound 1 µM
[29] = second compound 10 µM, first compound 3.16 µM
[30] = second compound 10 µM, first compound 10 µM
[31] = second compound 0.1 µM, first compound 0.00316 µM
[32] = second compound 0.1 µM, first compound 0.01 µM
[33] = second compound 0.316 µM, first compound 0.00316 µM
[34] = second compound 0.316 µM, first compound 0.01 µM
[35] = second compound 1 µM, first compound 0.00316 µM
[36] = second compound 1 µM, first compound 0.01 µM
[37] = second compound 3.16 µM, first compound 0.00316 µM
[38] = second compound 3.16 µM, first compound 0.01 µM
[39] = second compound 10 µM, first compound 0.00316 µM
[40] = second compound 10 µM, first compound 0.01 µM
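Also: seven day compound exposure before luminescent viability read.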
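For viability, T/C in this document: 100% = DMSO vehicle control wells.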

CC(C)c1c(-c2ccccc2)nc2c(C#N)c[nH]n2c1=O + NC1CC1c1ccc(-c2cccc(O)c2)cc1
IC50 (second compound 0.1 µM): > 10000 nM
IC50 (second compound 0.316 µM): > 10000 nM
IC50 (second compound 1 µM): > 10000 nM
IC50 (second compound 3.16 µM): > 10000 nM
IC50 (second compound 10 µM): > 10000 nM
viability, T/C [1]: 79.9%
viability, T/C [2]: 84%
viability, T/C [3]: 82%
viability, T/C [4]: 70.7%
viability, T/C [5]: 78.4%
viability, T/C [6]: 66%
viability, T/C [7]: 81.7%
viability, T/C [8]: 73%
viability, T/C [9]: 80.7%
viability, T/C [10]: 69.5%
viability, T/C [11]: 71.4%
viability, T/C [12]: 60.4%
viability, T/C [13]: 71.8%
viability, T/C [14]: 68.9%
viability, T/C [15]: 66.8%
viability, T/C [16]: 66.2%
viability, T/C [17]: 61.1%
viability, T/C [18]: 55.7%
viability, T/C [19]: 58.6%
viability, T/C [20]: 65.3%
viability, T/C [21]: 64.4%
viability, T/C [22]: 57.9%
viability, T/C [23]: 52.2%
viability, T/C [24]: 59.6%
viability, T/C [25]: 58.1%
viability, T/C [26]: 53.2%
viability, T/C [27]: 58.4%
viability, T/C [28]: 53.7%
viability, T/C [29]: 49.8%
viability, T/C [30]: 52.2%

CC1COCCN1c1cc(-c2ccnn2C)c2ccnc(-c3ccn[nH]3)c2n1 (stereo not given) + NC1CC1c1ccc(-c2cccc(O)c2)cc1
IC50 (second compound 0.1 µM): < 3.16 nM
IC50 (second compound 0.316 µM): < 3.16 nM
IC50 (second compound 1 µM): < 3.16 nM
IC50 (second compound 3.16 µM): < 3.16 nM
IC50 (second compound 10 µM): < 3.16 nM
viability, T/C [31]: 16.9%
viability, T/C [32]: 15.3%
viability, T/C [1]: 14.2%
viability, T/C [2]: 15.7%
viability, T/C [3]: 16.2%
viability, T/C [4]: 17.7%
viability, T/C [33]: 17.2%
viability, T/C [34]: 14.9%
viability, T/C [7]: 13.2%
viability, T/C [8]: 14.3%
viability, T/C [9]: 15.9%
viability, T/C [10]: 16.7%
viability, T/C [35]: 17.7%
viability, T/C [36]: 15.4%
viability, T/C [13]: 14.1%
viability, T/C [14]: 12.7%
viability, T/C [15]: 16.8%
viability, T/C [16]: 20.3%
viability, T/C [37]: 15.2%
viability, T/C [38]: 15.4%
viability, T/C [19]: 14.7%
viability, T/C [20]: 13.7%
viability, T/C [21]: 14.9%
viability, T/C [22]: 17%
viability, T/C [39]: 15.1%
viability, T/C [40]: 14.6%
viability, T/C [25]: 14.6%
viability, T/C [26]: 13.5%
viability, T/C [27]: 15.1%
viability, T/C [28]: 17.1%

COc1ccc([C@@H](O)c2cc(-c3ncnc4cc(N5CCOCC5)ccc34)c(F)cc2Cl)nn1 + NC1CC1c1ccc(-c2cccc(O)c2)cc1
IC50 (second compound 0.1 µM): 403 nM
IC50 (second compound 0.316 µM): 270 nM
IC50 (second compound 1 µM): 158 nM
IC50 (second compound 3.16 µM): 131 nM
IC50 (second compound 10 µM): < 31.6 nM
viability, T/C [1]: 73.1%
viability, T/C [2]: 73.9%
viability, T/C [3]: 53.5%
viability, T/C [4]: 30.8%
viability, T/C [5]: 20.9%
viability, T/C [6]: 10.5%
viability, T/C [7]: 72.5%
viability, T/C [8]: 69.6%
viability, T/C [9]: 44.4%
viability, T/C [10]: 28.2%
viability, T/C [11]: 18.2%
viability, T/C [12]: 10.7%
viability, T/C [13]: 57.7%
viability, T/C [14]: 56.9%
viability, T/C [15]: 41.9%
viability, T/C [16]: 28.1%
viability, T/C [17]: 18%
viability, T/C [18]: 11.3%
viability, T/C [19]: 54.9%
viability, T/C [20]: 55.8%
viability, T/C [21]: 38.8%
viability, T/C [22]: 23.4%
viability, T/C [23]: 16.8%
viability, T/C [24]: 11.5%
viability, T/C [25]: 44.6%
viability, T/C [26]: 43.3%
viability, T/C [27]: 30%
viability, T/C [28]: 20.8%
viability, T/C [29]: 15.5%
viability, T/C [30]: 12.2%

O=C(C=Cn1cnc(-c2cc(C(F)(F)F)cc(C(F)(F)F)c2)n1)NNc1cnccn1 + NC1CC1c1ccc(-c2cccc(O)c2)cc1
IC50 (second compound 0.1 µM): 3.26 nM
IC50 (second compound 0.316 µM): 3.41 nM
IC50 (second compound 1 µM): < 3.16 nM
IC50 (second compound 3.16 µM): 4.57 nM
IC50 (second compound 10 µM): 3.76 nM
viability, T/C [31]: 48.3%
viability, T/C [32]: 49.7%
viability, T/C [1]: 26.2%
viability, T/C [2]: 12.7%
viability, T/C [3]: 7.08%
viability, T/C [4]: 6.49%
viability, T/C [33]: 50%
viability, T/C [34]: 45%
viability, T/C [7]: 22.3%
viability, T/C [8]: 11.1%
viability, T/C [9]: 7.37%
viability, T/C [10]: 6.26%
viability, T/C [35]: 47.8%
viability, T/C [36]: 42.7%
viability, T/C [13]: 23%
viability, T/C [14]: 11.8%
viability, T/C [15]: 6.36%
viability, T/C [16]: 6.66%
viability, T/C [37]: 51.8%
viability, T/C [38]: 46%
viability, T/C [19]: 24%
viability, T/C [20]: 14.4%
viability, T/C [21]: 7.81%
viability, T/C [22]: 7.38%
viability, T/C [39]: 50.7%
viability, T/C [40]: 46.3%
viability, T/C [25]: 33.5%
viability, T/C [26]: 17.6%
viability, T/C [27]: 9.43%
viability, T/C [28]: 8.53%

COc1cc(C2c3cc4c(cc3C(OC3OC5COC(C)OC5C(O)C3O)C3COC(=O)C23)OCO4)cc(OC)c1O (stereo not given) + NC1CCC(NC2CC2c2ccccc2)CC1
IC50 (second compound 0.1 µM): 23.8 nM
IC50 (second compound 0.316 µM): 24.2 nM
IC50 (second compound 1 µM): 16.3 nM
IC50 (second compound 3.16 µM): 15.3 nM
IC50 (second compound 10 µM): 9.52 nM
viability, T/C (second compound 0.1 µM, first compound 0.00949 µM): 62.7%
viability, T/C (second compound 0.1 µM, first compound 0.03 µM): 48.7%
viability, T/C (second compound 0.1 µM, first compound 0.0949 µM): 27.9%
viability, T/C (second compound 0.1 µM, first compound 0.3 µM): 20.8%
viability, T/C (second compound 0.1 µM, first compound 0.949 µM): 11.2%
viability, T/C (second compound 0.1 µM, first compound 3 µM): 5.3%
viability, T/C (second compound 0.316 µM, first compound 0.00949 µM): 67.6%
viability, T/C (second compound 0.316 µM, first compound 0.03 µM): 45.2%
viability, T/C (second compound 0.316 µM, first compound 0.0949 µM): 29.6%
viability, T/C (second compound 0.316 µM, first compound 0.3 µM): 21.5%
viability, T/C (second compound 0.316 µM, first compound 0.949 µM): 8.7%
viability, T/C (second compound 0.316 µM, first compound 3 µM): 6.82%
viability, T/C (second compound 1 µM, first compound 0.00949 µM): 56%
viability, T/C (second compound 1 µM, first compound 0.03 µM): 42.9%
viability, T/C (second compound 1 µM, first compound 0.0949 µM): 30.5%
viability, T/C (second compound 1 µM, first compound 0.3 µM): 20%
viability, T/C (second compound 1 µM, first compound 0.949 µM): 8.76%
viability, T/C (second compound 1 µM, first compound 3 µM): 5.56%
viability, T/C (second compound 3.16 µM, first compound 0.00949 µM): 56.1%
viability, T/C (second compound 3.16 µM, first compound 0.03 µM): 40.5%
viability, T/C (second compound 3.16 µM, first compound 0.0949 µM): 30.7%
viability, T/C (second compound 3.16 µM, first compound 0.3 µM): 19%
viability, T/C (second compound 3.16 µM, first compound 0.949 µM): 8.55%
viability, T/C (second compound 3.16 µM, first compound 3 µM): 7.39%
viability, T/C (second compound 10 µM, first compound 0.00949 µM): 50.1%
viability, T/C (second compound 10 µM, first compound 0.03 µM): 38.8%
viability, T/C (second compound 10 µM, first compound 0.0949 µM): 27.3%
viability, T/C (second compound 10 µM, first compound 0.3 µM): 16.3%
viability, T/C (second compound 10 µM, first compound 0.949 µM): 9.55%
viability, T/C (second compound 10 µM, first compound 3 µM): 6.68%

Nc1ncn(C2CC(O)C(CO)O2)c(=O)n1 (stereo not given) + NC1CCC(NC2CC2c2ccccc2)CC1
IC50 (second compound 0.1 µM): 279 nM
IC50 (second compound 0.316 µM): 103 nM
IC50 (second compound 1 µM): 64 nM
IC50 (second compound 3.16 µM): 105 nM
IC50 (second compound 10 µM): 40.5 nM
viability, T/C [31]: 63.8%
viability, T/C [32]: 70.5%
viability, T/C [1]: 62.2%
viability, T/C [2]: 49.6%
viability, T/C [3]: 50.2%
viability, T/C [4]: 44.2%
viability, T/C [33]: 67%
viability, T/C [34]: 69%
viability, T/C [7]: 61.5%
viability, T/C [8]: 49.8%
viability, T/C [9]: 46.6%
viability, T/C [10]: 42.6%
viability, T/C [35]: 59.7%
viability, T/C [36]: 58.6%
viability, T/C [13]: 52.8%
viability, T/C [14]: 45.2%
viability, T/C [15]: 47%
viability, T/C [16]: 42.7%
viability, T/C [37]: 54.8%
viability, T/C [38]: 53.9%
viability, T/C [19]: 55.1%
viability, T/C [20]: 52.3%
viability, T/C [21]: 41.3%
viability, T/C [22]: 35.6%
viability, T/C [39]: 53.1%
viability, T/C [40]: 57.4%
viability, T/C [25]: 49.3%
viability, T/C [26]: 45.8%
viability, T/C [27]: 36%
viability, T/C [28]: 35.4%
